Experimental findings from US8338611B2, “Opioid receptor antagonists” (Eli Lilly and Company, priority 2004, dated 2012) are described below.

Several values for one entry are separate records, joined by “and”; a condition that tells them apart may be missing. Identical values can stand only once. Like-named read-outs stand apart in the source and are kept apart here.

Assay type in all cases: biochemical
In test [1] the target is T1, cloned human kappa opioid receptor (Homo sapiens, UniProt P41145).
T1 construct: expressed in transfected cells
The test is described as follows: GTP-γ-S Binding Assay, kappa opioid receptor (Table 1: Receptor Binding). To be noted: membranes from cells expressing cloned human kappa receptor.

For test [2], the target named is T2, cloned human delta opioid receptor (Homo sapiens, UniProt P41143).
T2 construct: expressed in transfected cells
As to the kind of experiment: GTP-γ-S Binding Assay, delta opioid receptor (Table 1: Receptor Binding). To be noted: membranes from cells expressing cloned human delta receptor. The procedure: The functional antagonist potency (Kb) of the sample compounds was determined using the GTPγS binding assay. GTPgS-based functional assays provide an in vitro measure of the activity of opioid agonists and antagonists. Opioid reference compounds or test compound are incubated with membrane homogenate from cells expressing the cloned human mu, kappa or delta opioid receptor and radiolabeled [35S]GTPgS. If the compound activates the opioid receptor, an increase in the binding of radiolabeled GTPgS is observed. […] These tests provide an in vitro measurement of the activity of the compound at human opioid receptors. GTP-γ-S Binding Assay
An SPA-based GTP-γ-S assay format was developed based on previous opioid (Emmerson et al., J. Pharm Exp Ther 278, 1121, 1996; Horng et al., Society for Neuroscience Abstracts, 434.6, 2000) and muscarinic (DeLapp et al., JPET 289, 946, 1999) assay formats. Membranes were resuspended in 20 mM HEPES, 100 mM NaCl, 5 mM MgCl2, 1 mM DTT, and 1 mM EDTA. Fifty (50) […], of GTP-γ-[35S], compound; membrane suspension (20 microgram/well), and wheat germ agglutinin coated SPA beads (1 mg/well) were added to clear bottom 96 well assay plates. GDP ([…]) was added to the membrane solution prior to addition to the assay plates. Plates were sealed and incubated for four hours at room temperature then placed in a refrigerator overnight to allow the beads to settle. Signal stability at 4° C. was determined to be >6O hours. Plates were warmed to room temperature and counted in a Wallac Microbeta scintillation counter. For antagonist assays, specific agonists were added at the following concentrations: (MOR) DAMGO 1 micromolar, (DOR) DPDPE 30 nM, (KOR) U69593 300 nM. Kb's were determined by Cheng-Prusoff equation (see Cheng and Prusoff, Biochem. Pharmacol. 22, 3099, 1973).

In test [3] the target is T3, cloned human mu opioid receptor (Homo sapiens, UniProt P35372).
T3 construct: expressed in transfected cells
The test is described as follows: GTP-γ-S Binding Assay, mu opioid receptor (Table 1: Receptor Binding). To be noted: membranes from cells expressing cloned human mu receptor.

Setting [4] is: read-out: Receptor Binding (Ki, nM) Mu.

T2 sequence (P41143 whole entry): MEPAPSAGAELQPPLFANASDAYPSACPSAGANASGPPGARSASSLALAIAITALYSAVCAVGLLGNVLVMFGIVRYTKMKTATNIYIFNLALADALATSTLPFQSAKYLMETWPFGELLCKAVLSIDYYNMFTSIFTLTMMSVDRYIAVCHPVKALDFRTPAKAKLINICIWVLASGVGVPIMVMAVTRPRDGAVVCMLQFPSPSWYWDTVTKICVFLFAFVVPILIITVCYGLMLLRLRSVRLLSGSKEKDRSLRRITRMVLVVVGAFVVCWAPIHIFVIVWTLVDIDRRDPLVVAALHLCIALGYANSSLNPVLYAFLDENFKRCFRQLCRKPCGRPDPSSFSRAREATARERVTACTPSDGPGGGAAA
T3 sequence (P35372 whole entry): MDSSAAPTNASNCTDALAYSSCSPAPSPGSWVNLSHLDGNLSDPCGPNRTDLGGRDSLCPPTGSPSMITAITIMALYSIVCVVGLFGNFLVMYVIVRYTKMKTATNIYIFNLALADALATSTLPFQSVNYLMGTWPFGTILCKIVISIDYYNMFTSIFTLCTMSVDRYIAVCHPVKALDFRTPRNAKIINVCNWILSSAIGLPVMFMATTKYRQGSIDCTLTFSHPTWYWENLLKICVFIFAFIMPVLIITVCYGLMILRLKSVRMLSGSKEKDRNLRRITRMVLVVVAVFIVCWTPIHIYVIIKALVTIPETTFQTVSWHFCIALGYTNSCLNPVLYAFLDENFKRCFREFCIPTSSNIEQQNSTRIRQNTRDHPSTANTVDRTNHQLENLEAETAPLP
T1 sequence (P41145 whole entry): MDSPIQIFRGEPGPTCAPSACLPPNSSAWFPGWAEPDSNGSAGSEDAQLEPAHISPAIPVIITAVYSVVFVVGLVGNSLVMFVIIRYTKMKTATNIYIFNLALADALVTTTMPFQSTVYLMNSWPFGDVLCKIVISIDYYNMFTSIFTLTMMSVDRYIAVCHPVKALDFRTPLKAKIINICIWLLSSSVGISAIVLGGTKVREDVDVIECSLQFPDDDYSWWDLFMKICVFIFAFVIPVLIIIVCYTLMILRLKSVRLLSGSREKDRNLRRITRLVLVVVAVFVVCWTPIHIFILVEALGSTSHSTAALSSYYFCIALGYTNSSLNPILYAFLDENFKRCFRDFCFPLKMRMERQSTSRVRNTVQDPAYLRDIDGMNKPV

By Ki is commonly meant the dissociation constant of the complex between target and ligand, obtained from inhibition or displacement. Take “6-{4-[(2-Pyridin-4-yl-ethylamino)-methyl]-phenylsulfanyl}-nicotinamide [Example 19]”: the Ki came to 137 nM in test [1], 858 nM in test [2] and 107 nM in test [3] (setting [4]).
For `CC(=O)c1ccc(Oc2ccc(CCNCc3ccccc3)cc2)cc1` [Example 5, 1-{4-[4-(2-Benzylamino-ethyl)-phenoxy]-phenyl}-ethanone] the same measures were > 5000 nM, > 5000 nM and 1310 nM.
On the same counts, the results for `CC(=O)Oc1ccc(Oc2ccc(CCNCc3ccccc3)cc2)cc1` [Example 6, Acetic acid 4-[4-(2-benzylamino-ethyl)-phenoxy]phenyl ester] are 1620 nM, 3250 nM and 229 nM.
On the same counts, the results for `NC(=O)c1ccc(Sc2ccc(CNCC3CC3)cc2)nc1` [Example 10, 6-{4-[(Cyclopropylmethyl-amino)-methyl]-phenylsulfanyl}-nicotinamide] are > 5000 nM, 3040 nM and 726 nM.
Regarding `CC(C)CCNCc1ccc(Sc2ccc(C(N)=O)cn2)cc1` [Example 13, 6-{4-[(3-Methyl-butylamino)-methyl]-phenylsulfanyl}-nicotinamide], the inhibition constant (Ki) in test [1] came out at 2440 nM; in test [2], 3520 nM; in test [3] (setting [4]), 563 nM.
With `NC(=O)c1ccc(S(=O)(=O)c2ccc(CNCCc3ccccc3)cc2)cc1` [Example 14, 4-[4-(Phenethylamino-methyl)-benzenesulfonyl]-benzamide], the Ki was 1020 nM in test [1], 714 nM in test [2] and 86.4 nM in test [3] (setting [4]).
For `NC(=O)c1ccc([S+]([O-])c2ccc(CNCCc3ccccc3)cc2)cc1` (stereo not shown) [Example 15, 4-[4-(Phenethylamino-methyl)-benzenesulfinyl]-benzamide] the same measures were 654 nM, 1820 nM and 292 nM.
In the case of `NCCc1ccc(Nc2ccc(C(N)=O)cn2)cc1` [Example 16, 6-[4-(2-Amino-ethyl)-phenylamino]-nicotinamide], the inhibitory constant (Ki) was found to be 1020 nM in test [1]; 270 nM in test [2]; 45.4 nM in test [3] (Receptor Binding (Ki, nM) Mu).
With `NC(=O)c1ccc(Nc2ccc(CCNCc3ccccc3)cc2)nc1` [Example 17, 6-[4-(2-Benzylamino-ethyl)-phenylamino]-nicotinamide], the Ki was 761 nM in test [1], > 5000 nM in test [2] and 1350 nM in test [3] (setting [4]).
On the same counts, the results for `NC(=O)c1ccc(Nc2ccc(CCNCC3CCCCC3)cc2)nc1` [Example 18, 6-{4-[2-(Cyclohexylmethyl-amino)-ethyl]-phenylamino}-nicotinamide] are 466 nM, 278 nM and 48.7 nM.
As for `NC(=O)c1ccc(Nc2ccc(CNCc3ccccc3)cc2)nc1` [Example 20, 6-[4-(Benzylamino-methyl)-phenylamino]-nicotinamide], the inhibitory constant (Ki) stood at 402 nM in test [1], 537 nM in test [2] and 73.2 nM in test [3] (setting [4]).
For `NC(=O)c1ccc(Nc2ccc(CNCC3CCCCC3)cc2)nc1` [Example 21, 6-{4-[(Cyclohexylmethyl-amino)-methyl]-phenylamino}-nicotinamide] the same measures were > 4000 nM, > 5000 nM and > 3000 nM.
For `NC(=O)c1ccc(Nc2ccc(CNCCc3ccccc3)cc2)nc1` [Example 22, 6-[4-(Phenethylamino-methyl)-phenylamino]-nicotinamide] the same measures were > 4000 nM, > 5000 nM and > 3000 nM.
Take `CC(=O)Nc1ccc(Oc2ccc(CCNC(=O)OC(C)(C)C)cc2)cc1` [Example 24, {2-[4-(4-Acetylamino-phenoxy)-phenyl]-ethyl}-carbamic acid tert-butyl ester]: the Ki in test [1] was 2670 nM; in test [2], 4020 nM; in test [3] (setting [4]) it was 198 nM.
For the compound `CC(=O)Nc1ccc(Oc2ccc(CCN)cc2)cc1` [Example 25, N-{4-[4-(2-Amino-ethyl)-phenoxy]-phenyl}-acetamide], the Ki in test [1] worked out at 3970 nM; in test [2], 2510 nM; in test [3] (Receptor Binding (Ki, nM) Mu), 67.5 nM.
Take `CCCCCCNCCc1ccc(Oc2ccc(NC(C)=O)cc2)cc1` [Example 27, N-{4-[4-(2-Hexylamino-ethyl)-phenoxy]-phenyl}-acetamide]: the Ki in test [3] (setting [4]) is 200 nM and 64.3 nM.
On to `CC(=O)Nc1ccc(Oc2ccc(CCNCc3cccs3)cc2)cc1` [Example 28, N-[4-(4-{2-[(Thiophen-2-ylmethyl)-amino]-ethyl}-phenoxy)-phenyl]-acetamide], for which the Ki stood at 150 nM in test [1], 469 nM in test [2] and 26.9 nM in test [3] (setting [4]).
Consider `CC(=O)Nc1ccc(Oc2ccc(CCNCCCc3ccccc3)cc2)cc1` [Example 29, N-(4-{4-[2-(3-Phenyl-propylamino)-ethyl]-phenoxy}-phenyl)-acetamide], for which the Ki turned out to be 731 nM in test [1], 62.5 nM in test [2] and 5.06 nM in test [3] (setting [4]).
On the same counts, the results for `CC(=O)Nc1ccc(Oc2ccc(CCNCCC3CCCCC3)cc2)cc1` [Example 30, N-(4-{4-[2-(2-Cyclohexyl-ethylamino)-ethyl]-phenoxy}-phenyl)-acetamide] are 163 nM, 260 nM and 18 nM.
On the same counts, the results for `CC(=O)Nc1ccc(Oc2ccc(CCNCc3ccco3)cc2)cc1` [Example 36, N-[4-(4-{2-[(Furan-2-ylmethyl)-amino]-ethyl}-phenoxy)-phenyl]-acetamide] are > 4000 nM, > 5000 nM and > 2500 nM.
For `CC(=O)Nc1ccc(Oc2ccc(CCNCc3cccc(Cl)c3)cc2)cc1` [Example 37, N-(4-{4-[2-(3-Chloro-benzylamino)-ethyl]-phenoxy}-phenyl)-acetamide] the same measures were > 4000 nM, > 5000 nM and 1750 nM.
As to `CC(=O)Nc1ccc(Oc2ccc(CCNCC(C)C)cc2)cc1` [Example 38, N-{4-[4-(2-Isobutylamino-ethyl)-phenoxy]-phenyl}-acetamide], the figures for the Ki in test [1], in test [2] and in test [3] (setting [4]) were > 4000 nM, > 5000 nM and 1720 nM, respectively.
On the same counts, the results for `CC(=O)Nc1ccc(Oc2ccc(CCNC3CCCCC3)cc2)cc1` [Example 39, N-{4-[4-(2-Cyclohexylamino-ethyl)-phenoxy]-phenyl}-acetamide] are > 4000 nM, > 5000 nM and > 2500 nM.
On the same counts, the results for `CC(=O)Nc1ccc(Oc2ccc(CCNCc3ccccc3C)cc2)cc1` [Example 40, N-(4-{4-[2-(2-Methyl-benzylamino)-ethyl]-phenoxy}-phenyl)-acetamide] are > 4000 nM, > 5000 nM and 912 nM.
